Measured values: ChEMBL document CHEMBL5030561, “Discovery of novel aminosaccharide-based sulfonamide derivatives as potential carbonic anhydrase II inhibitors” (Bioorg Med Chem Lett, 2021)

Key:
in vitro [1] = conditions: mouse, liver microsomes
Description: Metabolic stability in mouse liver microsomes assessed as half-life

[2] = Solubility of compound in water; assay type: physicochemical; conditions: buffer
in vitro [3] = conditions: mouse, liver microsomes; remark: listed apart in the source
Description: Metabolic stability in mouse liver microsomes assessed as clearance

Carbonic anhydrase 9 = Carbonic anhydrase 9 (Homo sapiens, UniProt Q16790); assay: Inhibition of recombinant human CA9 using 4-nitrophenylacetate as substrate by esterase assay
[4] = Cytotoxicity against HCEC cells assessed as cell viability at 1% by MTT assay relative to control; assay type: cell-based; conditions: human, read-out: Activity
[5] = Cytotoxicity against HCEC cells assessed as cell viability at 2 % by MTT assay relative to control; assay type: cell-based; conditions: human, read-out: Activity
Homo sapiens [6] = species on record: Homo sapiens; assay: Selectivity ratio of IC50 for inhibition of recombinant human CA1 to IC50 for inhibition of recombinant human CA2 using 4-nitrophenylacetate as substrate by esterase assay
Homo sapiens [7] = species on record: Homo sapiens; assay: Selectivity ratio of IC50 for inhibition of recombinant human CA9 to IC50 for inhibition of recombinant CA2 using 4-nitrophenylacetate as substrate by esterase assay
Carbonic anhydrase 2 = Carbonic anhydrase 2 (Homo sapiens, UniProt P00918)
Description: Inhibition of recombinant human CA2 using 4-nitrophenylacetate as substrate by esterase assay

Carbonic anhydrase 1 = Carbonic anhydrase 1 (Homo sapiens, UniProt P00915); assay: Inhibition of recombinant human CA1 using 4-nitrophenylacetate as substrate by esterase assay
Carbonic anhydrase 1, sequence (P00915 whole entry): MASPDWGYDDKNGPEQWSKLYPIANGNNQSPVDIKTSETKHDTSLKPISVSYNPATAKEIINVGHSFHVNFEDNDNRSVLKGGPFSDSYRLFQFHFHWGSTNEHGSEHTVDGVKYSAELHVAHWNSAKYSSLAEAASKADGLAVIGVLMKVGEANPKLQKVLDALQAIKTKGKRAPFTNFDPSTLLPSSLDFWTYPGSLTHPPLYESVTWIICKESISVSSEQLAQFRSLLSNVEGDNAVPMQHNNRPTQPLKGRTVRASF

| half-life (in vitro [1]) | solubility [2] | CLint scaled (in vitro [3]) | IC50 (Carbonic anhydrase 9) | Selectivity ratio (Homo sapiens [6]) | Selectivity ratio (Homo sapiens [7]) | IC50 (Carbonic anhydrase 2) | IC50 (Carbonic anhydrase 1) | SMILES | viability at 1 % [4] | viability at 2 % [5] |
| --- | --- | --- | --- | --- | --- | --- | --- | --- | --- | --- |
| 59.9 h | 2.1% | 1.53 mL/min/kg | 160 nM | – | – | – | – | CCCO[C@@H]1O[C@H](CNC(=O)c2ccc(S(N)(=O)=O)cc2)[C@@H](O)[C@H](O)[C@H]1O | 76% | 71% |
| 59.5 h | 2.2% | 1.54 mL/min/kg | 190 nM | – | – | – | – | CCO[C@@H]1O[C@H](CNC(=O)c2ccc(S(N)(=O)=O)cc2)[C@@H](O)[C@H](O)[C@H]1O | 76% | 71% |
| 55.8 h | 2.5% | 1.64 mL/min/kg | 190 nM | 19 | 1.6 | 120 nM | 2300 nM | CO[C@@H]1O[C@H](CNC(=O)c2ccc(S(N)(=O)=O)cc2)[C@@H](O)[C@H](O)[C@H]1N | 76% | 71% |
| 66.4 h | 2.2% | 1.38 mL/min/kg | 220 nM | – | – | – | – | CCCO[C@@H]1O[C@H](CNC(=O)c2ccc(S(N)(=O)=O)cc2)[C@H](O)[C@H](O)[C@H]1O | 76% | 71% |
| 61.6 h | 2% | 1.48 mL/min/kg | 200 nM | – | – | – | – | CCO[C@@H]1O[C@H](CNC(=O)c2ccc(S(N)(=O)=O)cc2)[C@@H](O)[C@H](O)[C@@H]1O | 76% | 71% |
| 57.2 h | 2.3% | 1.6 mL/min/kg | 170 nM | 41 | 2.4 | 70 nM | 2900 nM | CO[C@@H]1O[C@H](CNC(=O)c2ccc(S(N)(=O)=O)cc2)[C@@H](O)[C@H](O)[C@@H]1O | 76% | 71% |
| 64.5 h | 2.1% | 1.42 mL/min/kg | 260 nM | – | – | – | – | CCCO[C@@H]1O[C@H](CNC(=O)c2ccc(S(N)(=O)=O)cc2)[C@@H](O)[C@H](O)[C@@H]1O | 76% | 71% |
| 58.6 h | 2.5% | 1.56 mL/min/kg | 150 nM | 20 | 1.5 | 100 nM | 2000 nM | CO[C@@H]1O[C@H](CNC(=O)c2ccc(S(N)(=O)=O)cc2)[C@@H](O)[C@H](O)[C@H]1O | 76% | 71% |
| 64.4 h | 2.2% | 1.42 mL/min/kg | 290 nM | – | – | – | – | CCCO[C@@H]1O[C@H](CNC(=O)c2ccc(S(N)(=O)=O)cc2)[C@@H](O)[C@H](O)[C@H]1N | 76% | 71% |
| – | 0.21% | – | – | – | – | – | – | CC(=O)Nc1nnc(S(N)(=O)=O)s1 [ACETAZOLAMIDE] | 40% | 25% |
| 60.4 h | 2.1% | 1.52 mL/min/kg | 200 nM | 45 | 3.3 | 60 nM | 2700 nM | CO[C@@H]1O[C@H](CNC(=O)c2ccc(S(N)(=O)=O)cc2)[C@H](O)[C@H](O)[C@H]1O | 76% | 71% |
| 58.6 h | 2.3% | 1.56 mL/min/kg | 220 nM | – | – | – | – | CCO[C@@H]1O[C@H](CNC(=O)c2ccc(S(N)(=O)=O)cc2)[C@@H](O)[C@H](O)[C@H]1N | 76% | 71% |
| 61.1 h | 2.1% | 1.5 mL/min/kg | 180 nM | – | – | – | – | CCO[C@@H]1O[C@H](CNC(=O)c2ccc(S(N)(=O)=O)cc2)[C@H](O)[C@H](O)[C@H]1O | 76% | 71% |
| – | 0.67% | – | – | – | – | – | – | CCN[C@H]1C[C@H](C)S(=O)(=O)c2sc(S(N)(=O)=O)cc21 [DORZOLAMIDE] | – | – |
| – | 0.05% | – | – | – | – | – | – | CCN[C@H]1CN(CCCOC)S(=O)(=O)c2sc(S(N)(=O)=O)cc21 [BRINZOLAMIDE] | – | – |

| SMILES | half-life (in vitro [1]) | solubility [2] | CLint scaled (in vitro [3]) | IC50 (Carbonic anhydrase 9) | Selectivity ratio (Homo sapiens [6]) | Selectivity ratio (Homo sapiens [7]) | IC50 (Carbonic anhydrase 2) | IC50 (Carbonic anhydrase 1) | viability at 1 % [4] | viability at 2 % [5] |
| --- | --- | --- | --- | --- | --- | --- | --- | --- | --- | --- |
| O=C(O)Cc1ccccc1Nc1c(Cl)cccc1Cl [DICLOFENAC] | 0.667 h | – | 137 mL/min/kg | – | – | – | – | – | – | – |
